The values below come from patent US12391648B2, “Pyridyloxy thioester derivative and preparation method therefor, herbicidal composition, and application” (Qingdao Kingagroot Chemical Compound Co., Ltd., priority 2018, dated 2025).

Holding throughout (assay type): in vivo
For data set [1], the system named is Indica rice. Description: Post-emergence test experiment (Table 4), crop safety. The following applies: 600 g/ha active ingredient, plus water 450 kg/ha, after 3 weeks. From the text: (§1) The activity level standard of harmful plants destruction (i. e. growth inhibition rate) is as follows: • Level 5: the growth inhibition rate is greater than 85%; • Level 4: the growth inhibition rate is equal to or greater than 60% and less than 85%; • Level 3: the growth inhibition rate is equal to or greater than 40% and less than 60%; • Level 2: the growth inhibition rate is equal to or greater than 20% and less than 40%; • Level 1: the growth inhibition rate is equal to or greater than 5% and less than 20%; • Level 0: the growth inhibition rate is less than 5%;
(§2) The above described growth inhibition rate is fresh weight inhibition rate.
(§3) Post-emergence test experiment: Monocotyledonous and dicotyledonous weed seeds and main crop seeds (i. e. wheat, corn, rice, soybean, cotton, oilseed, millet and sorghum.) were put into a plastic pot loaded with soil. Then covered with 0.5-2 cm soil, the seeds were allowed to grow in good greenhouse environment. The test plants were treated at 2-3 leaf stage 2 weeks after sowing. The test compounds of the invention were dissolved with acetone respectively, then added with tween-80, and using 1.5 liters per hectare of an emulsible concentrate of methyl oleate as a synergist, and diluted by certain amount of water to certain concentration. The solution was sprayed to the plants with a sprayer. Then the plants were cultured for 3 weeks in the greenhouse, and the experiment result of weed controlling effect after 3 weeks was listed in tables 3-4.
(§4) […] Echinochloa crusgalli and Cyperus iria were collected from Ningxia Hui Autonomous Region of China, which had evolved resistance to ALS inhibiting herbicides. • Control compound A:

Data set [2] deals with Japonica rice. The description is as above. Conditions: 600 g/ha active ingredient, plus water 450 kg/ha, after 3 weeks.
Description: as §1, §2, §3, §4

The test system of data set [3] is ALS resistant Cyperus iria. The experiment in a line: Post-emergence test experiment (Table 4), weed control. The following applies: 600 g/ha active ingredient, plus water 450 kg/ha, after 3 weeks.
Description: as §1, §2, §3, §4

Data set [4] has as its system ALS resistant Echinochloa crusgalli. The data set is described as above. Conditions: 600 g/ha active ingredient, plus water 450 kg/ha, after 3 weeks.
Description: as §1, §2, §3, §4

The subject of data set [5] is rice (japonica rice). The experiment in a line: Transplanted rice safety evaluation. Conditions: 1000 g/ha, transplanted 3-leaf stage japonica rice, treated 5 days after transplantation, 21 days after treatment.
Description: as §1
(§5) Transplanted rice safety evaluation and weed control effect evaluation in rice field:
In addition, the rice field soil that loaded into the 1/1,000,000 ha pot was leveled to keep water storage at 3-4 cm depth. The 3-leaf stage rice (japonica rice) was transplanted at 3 cm of transplanting depth the next day. The compound of the present invention was treated by the same way after 5 days of transplantation.
(§6) The fertility condition of Monochoria vaginalis 14 days and rice 21 days after the treatment of the compound of the invention with the naked eye.

Data set [6] concerns Monochoria vaginalis. Description: Weed control effect evaluation in rice field. The following applies: 1000 g/ha, paddy water application at 0.5 leaf stage, 14 days after treatment, weeds resistant to pyrazosulfuron-ethyl and penoxsulam.
Description: as §1, §5
Rice field soil was loaded into a 1/1,000,000 ha pot. The seeds of Monochoria vaginalis were sowed and gently covered with soil, then left to stand still in greenhouse in the state of 0.5-1 cm of water storage. It was kept at 3-4 cm of water storage thereafter. The weeds were treated by dripping the WP or SC water diluents prepared according to the common preparation method of the compounds of the present invention with pipette homogeneously to achieve specified effective amount when Monochoria vaginalis reached 0. 5 leaf stage.
as §6
Note: The seeds of Monochoria vaginalis were collected from Heilongjing Province of China.

The subject of data set [7] is Abutilon theophrasti. The experiment in a line: Post-emergence test experiment (Table 3, 1000 g/ha). Conditions: post-emergence spray, after 3 weeks, fresh weight inhibition. Put shortly:
(§7)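 Weed seeds sown in soil-filled pots in greenhouse, sprayed at 2-3 leaf stage (2 weeks after sowing) with compound in acetone/tween-80 plus methyl oleate emulsible concentrate (1.5 L/ha) diluted in water. Fresh-weight growth inhibition scored after 3 weeks on 0-5 scale (5: >85%, 0: <5%).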

For data set [8], the system named is Digitaria sanguinalis. The data set is described as above. Conditions: post-emergence spray, after 3 weeks, fresh weight inhibition. Put shortly:
as §7

The subject of data set [9] is Galium spurium. The data set is described as above. Conditions: post-emergence spray, after 3 weeks, fresh weight inhibition. Put shortly: as §7
In data set [10] the test system is Leptochloa chinensis. The description is as above. Conditions: post-emergence spray, after 3 weeks, fresh weight inhibition. An outline of the steps: as §7
In data set [11] the test system is Monochoria vaginalis. The description is as above. Conditions: post-emergence spray, after 3 weeks, fresh weight inhibition. An outline of the steps: as §7
Data set [12] relates to Setaria viridis. Described as above. Conditions: post-emergence spray, after 3 weeks, fresh weight inhibition. Put shortly: as §7

On to `CCCCC(CC)CSC(=O)C(C)Oc1nc(F)c(Cl)c(N)c1Cl` (stereo not drawn) [Compound 74], for which the “Indica rice, activity level (growth inhibition rate)” value in data set [1] is recorded as 0 (Level 0: the growth inhibition rate is less than 5%). In addition, the “Japonica rice, activity level (growth inhibition rate)” value in data set [2] was 0 (Level 0: the growth inhibition rate is less than 5%). Also, the “ALS resistant Cyperus iria, activity level (growth inhibition rate)” value in data set [3] is listed as 5 (Level 5: the growth inhibition rate is greater than 85%). Besides, in data set [4], the “ALS resistant Echinochloa crusgalli, activity level (growth inhibition rate)” value is 5 (Level 5: the growth inhibition rate is greater than 85%). In addition, the “Rice, activity standard level 0-5 (safety)” value (“Rice … (safety)” for short) in [5] is 0 (Level 0: the growth inhibition rate is less than 5%). Further, the “Monochoria Vaginalis, activity standard level 0-5” value in [6] is 5 (Level 5: the growth inhibition rate is greater than 85%). In addition, in [7], the “Activity level (growth inhibition rate) Abutilon theophrasti” value was 5 (Level 5: the growth inhibition rate is greater than 85%). Also, the “Activity level (growth inhibition rate) Digitaria sanguinalis” value in [8] is 5 (Level 5: the growth inhibition rate is greater than 85%). The “Activity level (growth inhibition rate) Galium spurium” value in [9] is reported as 5 (Level 5: the growth inhibition rate is greater than 85%). For the same compound, the “Activity level (growth inhibition rate) Leptochloa chinensis” value in data set [10] is given as 5 (Level 5: the growth inhibition rate is greater than 85%). In addition, in data set [11], the “Activity level (growth inhibition rate) Monochoria Vaginalis” value is on record as 5 (Level 5: the growth inhibition rate is greater than 85%). Also, the “Activity level (growth inhibition rate) Setaria viridis” value in data set [12] is on record as 5 (Level 5: the growth inhibition rate is greater than 85%).
As for `CC(Cl)CCSC(=O)C(C)Oc1nc(F)c(Cl)c(N)c1Cl` (stereo not drawn) [Compound 77], the “Indica rice, activity level (growth inhibition rate)” value in data set [1] was 0 (Level 0: the growth inhibition rate is less than 5%). For the same compound, the “Japonica rice, activity level (growth inhibition rate)” value in data set [2] is listed as 0 (Level 0: the growth inhibition rate is less than 5%). For the same compound, the “ALS resistant Cyperus iria, activity level (growth inhibition rate)” value in [3] is listed as 5 (Level 5: the growth inhibition rate is greater than 85%). Further, the “ALS resistant Echinochloa crusgalli, activity level (growth inhibition rate)” value in data set [4] is reported as 5 (Level 5: the growth inhibition rate is greater than 85%). Also, in [5], the “Rice … (safety)” value was 0 (Level 0: the growth inhibition rate is less than 5%). The “Monochoria Vaginalis, activity standard level 0-5” value in data set [6] is on record as 5 (Level 5: the growth inhibition rate is greater than 85%). In addition, the “Activity level (growth inhibition rate) Abutilon theophrasti” value in data set [7] is listed as 5 (Level 5: the growth inhibition rate is greater than 85%). The “Activity level (growth inhibition rate) Digitaria sanguinalis” value in data set [8] is recorded as 5 (Level 5: the growth inhibition rate is greater than 85%). Also, in [9], the “Activity level (growth inhibition rate) Galium spurium” value is on record as 5 (Level 5: the growth inhibition rate is greater than 85%). Moreover, the “Activity level (growth inhibition rate) Leptochloa chinensis” value in [10] is given as 5 (Level 5: the growth inhibition rate is greater than 85%). The “Activity level (growth inhibition rate) Monochoria Vaginalis” value in data set [11] was 5 (Level 5: the growth inhibition rate is greater than 85%). Moreover, the “Activity level (growth inhibition rate) Setaria viridis” value in data set [12] was 5 (Level 5: the growth inhibition rate is greater than 85%).
For `CC(Oc1nc(F)c(Cl)c(N)c1Cl)C(=O)SCCCC(F)(F)F` (stereo not drawn) [Compound 79], in data set [1], the “Indica rice, activity level (growth inhibition rate)” value was 0 (Level 0: the growth inhibition rate is less than 5%). For the same compound, the “Japonica rice, activity level (growth inhibition rate)” value in data set [2] is reported as 0 (Level 0: the growth inhibition rate is less than 5%). In addition, the “ALS resistant Cyperus iria, activity level (growth inhibition rate)” value in [3] was 5 (Level 5: the growth inhibition rate is greater than 85%). For the same compound, in data set [4], the “ALS resistant Echinochloa crusgalli, activity level (growth inhibition rate)” value is 5 (Level 5: the growth inhibition rate is greater than 85%). Also, in [5], the “Rice … (safety)” value is recorded as 0 (Level 0: the growth inhibition rate is less than 5%). In data set [6], the “Monochoria Vaginalis, activity standard level 0-5” value is reported as 5 (Level 5: the growth inhibition rate is greater than 85%). The “Activity level (growth inhibition rate) Abutilon theophrasti” value in [7] was 5 (Level 5: the growth inhibition rate is greater than 85%). The “Activity level (growth inhibition rate) Digitaria sanguinalis” value in [8] is reported as 5 (Level 5: the growth inhibition rate is greater than 85%). In addition, the “Activity level (growth inhibition rate) Galium spurium” value in data set [9] is 5 (Level 5: the growth inhibition rate is greater than 85%). The “Activity level (growth inhibition rate) Leptochloa chinensis” value in [10] is listed as 5 (Level 5: the growth inhibition rate is greater than 85%). Moreover, the “Activity level (growth inhibition rate) Monochoria Vaginalis” value in data set [11] was 5 (Level 5: the growth inhibition rate is greater than 85%). For the same compound, the “Activity level (growth inhibition rate) Setaria viridis” value in [12] is reported as 5 (Level 5: the growth inhibition rate is greater than 85%).
For `CC(Oc1nc(F)c(Cl)c(N)c1Cl)C(=O)SC1CCCCC1` (stereo not drawn) [Compound 82], the “Indica rice, activity level (growth inhibition rate)” value in [1] is 0 (Level 0: the growth inhibition rate is less than 5%). Moreover, the “Japonica rice, activity level (growth inhibition rate)” value in data set [2] is given as 0 (Level 0: the growth inhibition rate is less than 5%). Moreover, the “ALS resistant Cyperus iria, activity level (growth inhibition rate)” value in data set [3] is reported as 5 (Level 5: the growth inhibition rate is greater than 85%). Moreover, the “ALS resistant Echinochloa crusgalli, activity level (growth inhibition rate)” value in data set [4] is listed as 5 (Level 5: the growth inhibition rate is greater than 85%). Moreover, the “Rice … (safety)” value in [5] is 0 (Level 0: the growth inhibition rate is less than 5%). Also, the “Monochoria Vaginalis, activity standard level 0-5” value in [6] is reported as 5 (Level 5: the growth inhibition rate is greater than 85%). Moreover, in [7], the “Activity level (growth inhibition rate) Abutilon theophrasti” value was 5 (Level 5: the growth inhibition rate is greater than 85%). For the same compound, in [8], the “Activity level (growth inhibition rate) Digitaria sanguinalis” value was 5 (Level 5: the growth inhibition rate is greater than 85%). In [9], the “Activity level (growth inhibition rate) Galium spurium” value is reported as 5 (Level 5: the growth inhibition rate is greater than 85%). Further, the “Activity level (growth inhibition rate) Leptochloa chinensis” value in [10] is reported as 5 (Level 5: the growth inhibition rate is greater than 85%). Moreover, the “Activity level (growth inhibition rate) Monochoria Vaginalis” value in [11] is recorded as 5 (Level 5: the growth inhibition rate is greater than 85%). The “Activity level (growth inhibition rate) Setaria viridis” value in data set [12] is given as 5 (Level 5: the growth inhibition rate is greater than 85%).
As to `CCCCOCCSC(=O)C(C)Oc1nc(F)c(Cl)c(N)c1Cl` (stereo not drawn) [Compound 87], the “Indica rice, activity level (growth inhibition rate)” value in data set [1] is given as 0 (Level 0: the growth inhibition rate is less than 5%). Besides, the “Japonica rice, activity level (growth inhibition rate)” value in [2] was 0 (Level 0: the growth inhibition rate is less than 5%). The “ALS resistant Cyperus iria, activity level (growth inhibition rate)” value in [3] is 5 (Level 5: the growth inhibition rate is greater than 85%). Further, the “ALS resistant Echinochloa crusgalli, activity level (growth inhibition rate)” value in data set [4] was 5 (Level 5: the growth inhibition rate is greater than 85%). In addition, the “Rice … (safety)” value in data set [5] is 0 (Level 0: the growth inhibition rate is less than 5%). In data set [6], the “Monochoria Vaginalis, activity standard level 0-5” value is given as 5 (Level 5: the growth inhibition rate is greater than 85%). In addition, the “Activity level (growth inhibition rate) Abutilon theophrasti” value in data set [7] is recorded as 5 (Level 5: the growth inhibition rate is greater than 85%). For the same compound, the “Activity level (growth inhibition rate) Digitaria sanguinalis” value in [8] is recorded as 5 (Level 5: the growth inhibition rate is greater than 85%). In data set [9], the “Activity level (growth inhibition rate) Galium spurium” value is 5 (Level 5: the growth inhibition rate is greater than 85%). The “Activity level (growth inhibition rate) Leptochloa chinensis” value in data set [10] is on record as 5 (Level 5: the growth inhibition rate is greater than 85%). The “Activity level (growth inhibition rate) Monochoria Vaginalis” value in data set [11] is 5 (Level 5: the growth inhibition rate is greater than 85%). Moreover, the “Activity level (growth inhibition rate) Setaria viridis” value in data set [12] is listed as 5 (Level 5: the growth inhibition rate is greater than 85%).
